The values that follow come from ChEMBL document CHEMBL4813977, “Discovery of potent colony-stimulating factor 1 receptor inhibitors by replacement of hinge-binder moieties” (Eur J Med Chem, 2021).

The source made the active and inactive calls. No cut-off for these calls is given here.

In assay [1] the target is Tyrosine-protein kinase ABL1 (Homo sapiens) (UniProt P00519). As to the kind of experiment: Inhibition of human ABL1 at 0.1 uM using EAIYAAPFAKKK as substrate in presence of [gamma-33P]-ATP by radiometric assay relative to control.
In assay [2] the target is ALK tyrosine kinase receptor (Homo sapiens) (UniProt Q9UM73). As to the kind of experiment: Inhibition of human ALK at 0.1 uM using poly[Glu:Tyr] (4:1) as substrate in presence of [gamma-33P]-ATP by radiometric assay relative to control.
The target of assay [3] is Serine/threonine-protein kinase B-raf (Homo sapiens) (UniProt P15056). In words: Inhibition of human BRAF at 0.1 uM using MEK1 (K97R) as substrate in presence of [gamma-33P]-ATP by radiometric assay relative to control.
For assay [4], the target named is Epidermal growth factor receptor (Homo sapiens) (UniProt P00533). As to the kind of experiment: Inhibition of human EGFR at 0.1 uM using poly[Glu:Tyr] (4:1) as substrate in presence of [gamma-33P]-ATP by radiometric assay relative to control.
For assay [5], the target named is Mitogen-activated protein kinase 1 (Homo sapiens) (UniProt P28482). In words: Inhibition of human ERK2 at 0.1 uM using MBP as substrate in presence of [gamma-33P]-ATP by radiometric assay relative to control.
The target in assay [6] is Tyrosine-protein kinase JAK2 (Homo sapiens) (UniProt O60674). In words: Inhibition of human JAK2 at 0.1 uM using poly[Glu:Tyr] (4:1) as substrate in presence of [gamma-33P]-ATP by radiometric assay relative to control.
For assay [7], the target named is T1, Tyrosine-protein kinase JAK3 (Homo sapiens) (UniProt P52333).
T1 sequence (whole entry): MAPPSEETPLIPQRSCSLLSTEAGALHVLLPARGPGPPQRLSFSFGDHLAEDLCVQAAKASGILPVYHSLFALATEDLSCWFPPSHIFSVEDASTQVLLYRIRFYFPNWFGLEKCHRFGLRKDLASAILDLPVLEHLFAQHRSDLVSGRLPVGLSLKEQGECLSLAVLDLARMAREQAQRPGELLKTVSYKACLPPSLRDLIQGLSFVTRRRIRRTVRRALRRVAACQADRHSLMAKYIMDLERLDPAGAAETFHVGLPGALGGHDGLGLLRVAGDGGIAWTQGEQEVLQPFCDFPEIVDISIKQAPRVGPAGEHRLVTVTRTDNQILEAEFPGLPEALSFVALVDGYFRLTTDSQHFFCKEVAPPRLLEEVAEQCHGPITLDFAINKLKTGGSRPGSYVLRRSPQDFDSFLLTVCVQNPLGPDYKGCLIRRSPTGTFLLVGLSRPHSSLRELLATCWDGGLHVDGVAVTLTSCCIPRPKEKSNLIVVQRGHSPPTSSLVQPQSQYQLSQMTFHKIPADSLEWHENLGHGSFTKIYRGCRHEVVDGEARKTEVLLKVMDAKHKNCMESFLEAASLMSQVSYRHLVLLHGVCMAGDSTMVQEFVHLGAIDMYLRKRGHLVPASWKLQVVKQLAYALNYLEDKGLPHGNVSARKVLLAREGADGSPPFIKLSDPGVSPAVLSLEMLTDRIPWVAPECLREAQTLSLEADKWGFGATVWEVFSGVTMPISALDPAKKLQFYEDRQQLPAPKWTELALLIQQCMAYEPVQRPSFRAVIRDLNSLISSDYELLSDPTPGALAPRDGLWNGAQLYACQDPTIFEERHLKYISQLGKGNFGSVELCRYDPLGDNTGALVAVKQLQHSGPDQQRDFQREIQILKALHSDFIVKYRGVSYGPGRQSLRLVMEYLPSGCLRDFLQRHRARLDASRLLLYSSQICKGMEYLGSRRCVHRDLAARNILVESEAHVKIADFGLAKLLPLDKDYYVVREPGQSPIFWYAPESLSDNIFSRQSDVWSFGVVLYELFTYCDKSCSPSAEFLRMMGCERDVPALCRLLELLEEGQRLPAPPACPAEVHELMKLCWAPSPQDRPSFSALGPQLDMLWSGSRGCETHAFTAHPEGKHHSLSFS
As to the kind of experiment: Inhibition of human JAK3 at 0.1 uM using GGEEEEYFELVKKKK as substrate in presence of [gamma-33P]-ATP by radiometric assay relative to control.

In assay [8] the target is Tyrosine-protein kinase Lck (Homo sapiens) (UniProt P06239). In words: Inhibition of human LCK at 0.1 uM using poly[Glu:Tyr] (4:1) as substrate jn presence of [gamma-33P]-ATP by radiometric assay relative to control.
Assay [9] has as its target Tyrosine-protein kinase Lyn (Homo sapiens) (UniProt P07948). As to the kind of experiment: Inhibition of human LYN at 0.1 uM using poly[Glu:Tyr] (4:1) as substrate in presence of [gamma-33P]-ATP by radiometric assay relative to control.
Assay [10] deals with Dual specificity mitogen-activated protein kinase kinase 1 (Homo sapiens) (UniProt Q02750). As to the kind of experiment: Inhibition of human MEK1 at 0.1 uM using ERK2 (K52R) as substrate in presence of [gamma-33P]-ATP by radiometric assay relative to control.
The species named for the next assay is Homo sapiens. As to the kind of experiment: Inhibition of human PKA at 0.1 uM using LCGRTGRRNSI as substrate in presence of [gamma-33P]-ATP by radiometric assay relative to control.
Assay [11] has as its target Non-receptor tyrosine-protein kinase TYK2 (Homo sapiens) (UniProt P29597). In words: Inhibition of human TYK2 at 0.1 uM using KKSRGDYMTMQIG as substrate in presence of [gamma-33P]-ATP by radiometric assay relative to control.
Assay [12] has as its target T2, Macrophage colony-stimulating factor 1 receptor (Mus musculus) (UniProt P09581).
T2 sequence (whole entry): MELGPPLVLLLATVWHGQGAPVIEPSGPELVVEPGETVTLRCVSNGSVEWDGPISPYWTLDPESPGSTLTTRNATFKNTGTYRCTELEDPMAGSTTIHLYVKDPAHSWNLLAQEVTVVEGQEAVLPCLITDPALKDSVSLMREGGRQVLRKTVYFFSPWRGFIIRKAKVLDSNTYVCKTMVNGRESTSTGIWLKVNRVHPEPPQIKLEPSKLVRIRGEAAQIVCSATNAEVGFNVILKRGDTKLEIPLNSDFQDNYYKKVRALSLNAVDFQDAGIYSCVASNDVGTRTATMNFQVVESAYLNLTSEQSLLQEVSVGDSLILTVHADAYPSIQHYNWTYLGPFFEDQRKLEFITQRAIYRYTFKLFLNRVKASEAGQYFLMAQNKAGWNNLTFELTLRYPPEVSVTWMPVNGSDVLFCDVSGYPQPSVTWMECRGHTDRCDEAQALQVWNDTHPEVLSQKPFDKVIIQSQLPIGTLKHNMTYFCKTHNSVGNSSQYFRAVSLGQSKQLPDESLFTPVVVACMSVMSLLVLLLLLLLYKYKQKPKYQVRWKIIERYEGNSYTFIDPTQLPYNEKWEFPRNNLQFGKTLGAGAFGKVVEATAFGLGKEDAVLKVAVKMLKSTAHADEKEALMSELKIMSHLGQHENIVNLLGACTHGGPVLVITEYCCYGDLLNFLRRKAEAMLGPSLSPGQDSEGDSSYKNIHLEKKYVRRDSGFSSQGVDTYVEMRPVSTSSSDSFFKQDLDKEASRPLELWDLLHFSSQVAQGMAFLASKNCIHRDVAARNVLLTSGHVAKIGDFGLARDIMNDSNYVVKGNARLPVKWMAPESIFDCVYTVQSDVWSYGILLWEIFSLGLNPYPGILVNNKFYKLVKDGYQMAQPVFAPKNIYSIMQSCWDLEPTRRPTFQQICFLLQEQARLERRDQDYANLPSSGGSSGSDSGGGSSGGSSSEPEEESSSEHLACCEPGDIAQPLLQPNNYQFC
As to the kind of experiment: Inhibition of CSF1R phosphorylation in mouse RAW 264.7 cells at 10 to 100 nM preincubated for 5 hrs followed by CSF stimulation for 10 mins by Western blot analysis. Particulars: RAW264.7, dose 10-100 nM, time 310.0 min. Type of assay: cell-based. A general note: A western blot detects proteins with antibodies after separation by electrophoresis.

In assay [13] the target is Mast/stem cell growth factor receptor Kit (Homo sapiens) (UniProt P10721). The settings on record: dose 10.0 nM.
Description: Inhibition of human c-KIT at 10 nM using poly[Glu:Tyr] (4:1) as substrate in presence of [gamma-33P]-ATP by radiometric assay relative to control
The target is the same in assay [14]. The settings on record: dose 100.0 nM.
Description: Inhibition of human c-KIT at 100 nM using poly[Glu:Tyr] (4:1) as substrate in presence of [gamma-33P]-ATP by radiometric assay relative to control
The target of assay [15] is Receptor-type tyrosine-protein kinase FLT3 (Homo sapiens) (UniProt P36888). Particulars: dose 10.0 nM.
Assay [16] has the same target. Particulars: dose 100.0 nM.
For assay [17], the target named is Macrophage colony-stimulating factor 1 receptor (Homo sapiens) (UniProt P07333). Particulars: dose 10.0 nM.
Description: Inhibition of human CSF1R at 10 nM using poly[Glu:Tyr] (4:1) as substrate in presence of [gamma-33P]-ATP by radiometric assay relative to control
Assay [18] has the same target. Particulars: dose 100.0 nM.
Description: Inhibition of human CSF1R at 100 nM using poly[Glu:Tyr] (4:1) as substrate in presence of [gamma-33P]-ATP by radiometric assay relative to control

Chain of Macrophage colony-stimulating factor 1 receptor (Homo sapiens) (P07333 whole entry): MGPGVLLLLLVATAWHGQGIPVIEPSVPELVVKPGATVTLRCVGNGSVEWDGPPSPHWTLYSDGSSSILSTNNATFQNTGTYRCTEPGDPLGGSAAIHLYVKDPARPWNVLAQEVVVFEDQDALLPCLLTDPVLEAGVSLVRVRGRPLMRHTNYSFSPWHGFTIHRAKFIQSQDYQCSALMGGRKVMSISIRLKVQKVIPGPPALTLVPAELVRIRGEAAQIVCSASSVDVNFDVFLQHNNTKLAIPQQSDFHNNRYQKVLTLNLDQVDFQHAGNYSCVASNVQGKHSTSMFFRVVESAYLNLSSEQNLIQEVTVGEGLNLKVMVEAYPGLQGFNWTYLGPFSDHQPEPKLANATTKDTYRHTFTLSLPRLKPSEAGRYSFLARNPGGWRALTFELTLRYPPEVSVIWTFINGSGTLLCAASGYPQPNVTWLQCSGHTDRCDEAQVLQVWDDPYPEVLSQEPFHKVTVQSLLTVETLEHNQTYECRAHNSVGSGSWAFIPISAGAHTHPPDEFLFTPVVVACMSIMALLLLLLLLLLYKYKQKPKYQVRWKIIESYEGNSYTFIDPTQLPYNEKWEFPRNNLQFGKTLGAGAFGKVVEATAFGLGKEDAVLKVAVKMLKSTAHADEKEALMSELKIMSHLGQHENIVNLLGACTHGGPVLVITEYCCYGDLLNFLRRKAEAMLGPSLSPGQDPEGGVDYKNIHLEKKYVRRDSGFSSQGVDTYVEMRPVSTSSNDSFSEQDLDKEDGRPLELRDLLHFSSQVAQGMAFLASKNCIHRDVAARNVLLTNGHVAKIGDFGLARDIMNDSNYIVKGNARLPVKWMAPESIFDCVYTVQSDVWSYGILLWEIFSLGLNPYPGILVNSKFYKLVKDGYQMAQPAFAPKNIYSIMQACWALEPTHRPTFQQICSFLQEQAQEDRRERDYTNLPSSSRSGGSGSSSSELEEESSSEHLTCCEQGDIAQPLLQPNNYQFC
Chain of Mast/stem cell growth factor receptor Kit (Homo sapiens) (P10721 whole entry): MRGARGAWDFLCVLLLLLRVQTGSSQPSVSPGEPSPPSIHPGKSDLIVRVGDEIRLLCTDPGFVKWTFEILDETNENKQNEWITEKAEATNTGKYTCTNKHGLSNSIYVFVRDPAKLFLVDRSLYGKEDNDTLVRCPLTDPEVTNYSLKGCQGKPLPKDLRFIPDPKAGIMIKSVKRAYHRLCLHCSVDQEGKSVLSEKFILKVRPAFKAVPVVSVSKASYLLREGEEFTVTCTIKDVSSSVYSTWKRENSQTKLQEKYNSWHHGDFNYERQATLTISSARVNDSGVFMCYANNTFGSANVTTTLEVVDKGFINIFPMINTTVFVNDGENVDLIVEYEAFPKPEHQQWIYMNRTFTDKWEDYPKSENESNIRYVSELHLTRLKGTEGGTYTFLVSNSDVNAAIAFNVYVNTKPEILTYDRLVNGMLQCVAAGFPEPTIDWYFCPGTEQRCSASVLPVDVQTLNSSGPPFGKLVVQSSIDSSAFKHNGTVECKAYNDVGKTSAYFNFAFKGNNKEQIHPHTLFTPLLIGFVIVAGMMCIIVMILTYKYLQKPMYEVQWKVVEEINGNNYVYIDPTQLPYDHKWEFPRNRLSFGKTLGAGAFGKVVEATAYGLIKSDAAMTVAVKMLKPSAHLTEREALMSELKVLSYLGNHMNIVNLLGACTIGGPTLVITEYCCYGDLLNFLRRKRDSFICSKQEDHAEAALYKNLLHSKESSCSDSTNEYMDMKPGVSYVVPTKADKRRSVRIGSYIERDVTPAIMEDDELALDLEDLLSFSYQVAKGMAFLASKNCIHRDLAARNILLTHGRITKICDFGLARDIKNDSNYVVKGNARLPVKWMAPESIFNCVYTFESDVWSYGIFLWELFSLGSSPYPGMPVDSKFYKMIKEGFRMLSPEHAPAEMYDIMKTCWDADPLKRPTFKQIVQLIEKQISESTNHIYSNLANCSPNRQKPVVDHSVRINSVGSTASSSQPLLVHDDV
Chain of Receptor-type tyrosine-protein kinase FLT3 (Homo sapiens) (P36888 whole entry): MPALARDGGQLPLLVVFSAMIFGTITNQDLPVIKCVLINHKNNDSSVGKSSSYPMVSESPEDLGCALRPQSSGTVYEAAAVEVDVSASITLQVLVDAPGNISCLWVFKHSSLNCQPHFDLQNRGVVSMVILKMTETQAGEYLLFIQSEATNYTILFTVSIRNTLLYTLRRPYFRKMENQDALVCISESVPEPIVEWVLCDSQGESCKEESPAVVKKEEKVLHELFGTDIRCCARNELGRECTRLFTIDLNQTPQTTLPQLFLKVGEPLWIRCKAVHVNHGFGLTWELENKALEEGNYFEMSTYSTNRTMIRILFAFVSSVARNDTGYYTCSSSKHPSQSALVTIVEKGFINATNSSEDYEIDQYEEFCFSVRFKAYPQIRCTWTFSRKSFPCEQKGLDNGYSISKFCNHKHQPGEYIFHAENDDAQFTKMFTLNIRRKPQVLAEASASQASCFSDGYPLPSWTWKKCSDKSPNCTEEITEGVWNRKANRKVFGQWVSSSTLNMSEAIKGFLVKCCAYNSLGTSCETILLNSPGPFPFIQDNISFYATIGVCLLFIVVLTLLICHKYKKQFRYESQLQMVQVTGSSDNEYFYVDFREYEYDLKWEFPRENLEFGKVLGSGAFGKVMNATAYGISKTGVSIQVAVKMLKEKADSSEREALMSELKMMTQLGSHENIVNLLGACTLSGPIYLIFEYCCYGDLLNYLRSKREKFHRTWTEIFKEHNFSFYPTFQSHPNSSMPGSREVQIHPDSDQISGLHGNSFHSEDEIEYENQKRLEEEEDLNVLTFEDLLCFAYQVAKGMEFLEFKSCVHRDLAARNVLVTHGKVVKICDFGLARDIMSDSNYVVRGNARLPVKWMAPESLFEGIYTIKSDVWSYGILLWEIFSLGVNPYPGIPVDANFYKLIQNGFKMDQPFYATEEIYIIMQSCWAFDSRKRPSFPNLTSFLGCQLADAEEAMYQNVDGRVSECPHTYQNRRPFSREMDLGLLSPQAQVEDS
Chain of Non-receptor tyrosine-protein kinase TYK2 (Homo sapiens) (P29597 whole entry): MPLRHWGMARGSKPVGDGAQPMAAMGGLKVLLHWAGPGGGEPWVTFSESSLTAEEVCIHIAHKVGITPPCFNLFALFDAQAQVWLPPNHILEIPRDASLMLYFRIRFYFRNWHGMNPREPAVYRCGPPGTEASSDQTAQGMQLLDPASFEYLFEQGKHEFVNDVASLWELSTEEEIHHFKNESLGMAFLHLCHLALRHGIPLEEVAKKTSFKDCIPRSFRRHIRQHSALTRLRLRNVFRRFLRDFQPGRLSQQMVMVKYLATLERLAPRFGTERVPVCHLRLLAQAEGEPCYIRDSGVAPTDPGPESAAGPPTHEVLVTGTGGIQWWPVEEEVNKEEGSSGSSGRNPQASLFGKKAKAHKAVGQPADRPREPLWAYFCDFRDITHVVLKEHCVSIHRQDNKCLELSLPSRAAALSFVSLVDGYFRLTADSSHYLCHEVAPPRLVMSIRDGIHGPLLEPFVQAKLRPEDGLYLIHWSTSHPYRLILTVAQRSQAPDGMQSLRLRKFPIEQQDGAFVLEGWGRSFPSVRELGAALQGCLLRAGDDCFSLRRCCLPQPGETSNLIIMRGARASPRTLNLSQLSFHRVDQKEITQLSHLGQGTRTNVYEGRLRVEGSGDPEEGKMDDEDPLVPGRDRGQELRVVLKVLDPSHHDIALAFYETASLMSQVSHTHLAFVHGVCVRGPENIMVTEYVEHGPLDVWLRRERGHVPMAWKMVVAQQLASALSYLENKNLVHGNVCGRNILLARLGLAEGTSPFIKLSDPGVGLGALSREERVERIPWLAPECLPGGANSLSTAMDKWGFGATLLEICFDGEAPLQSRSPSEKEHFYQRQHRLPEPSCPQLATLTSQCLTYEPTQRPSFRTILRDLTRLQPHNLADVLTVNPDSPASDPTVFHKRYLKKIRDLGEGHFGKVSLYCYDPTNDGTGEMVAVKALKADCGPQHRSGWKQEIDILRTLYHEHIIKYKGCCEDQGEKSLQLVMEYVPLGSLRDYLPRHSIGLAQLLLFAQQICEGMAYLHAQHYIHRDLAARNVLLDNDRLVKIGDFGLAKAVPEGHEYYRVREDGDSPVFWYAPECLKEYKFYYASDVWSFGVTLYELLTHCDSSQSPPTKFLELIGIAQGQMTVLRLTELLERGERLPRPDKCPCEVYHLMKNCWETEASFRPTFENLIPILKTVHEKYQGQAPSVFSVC
Chain of Dual specificity mitogen-activated protein kinase kinase 1 (Homo sapiens) (Q02750 whole entry): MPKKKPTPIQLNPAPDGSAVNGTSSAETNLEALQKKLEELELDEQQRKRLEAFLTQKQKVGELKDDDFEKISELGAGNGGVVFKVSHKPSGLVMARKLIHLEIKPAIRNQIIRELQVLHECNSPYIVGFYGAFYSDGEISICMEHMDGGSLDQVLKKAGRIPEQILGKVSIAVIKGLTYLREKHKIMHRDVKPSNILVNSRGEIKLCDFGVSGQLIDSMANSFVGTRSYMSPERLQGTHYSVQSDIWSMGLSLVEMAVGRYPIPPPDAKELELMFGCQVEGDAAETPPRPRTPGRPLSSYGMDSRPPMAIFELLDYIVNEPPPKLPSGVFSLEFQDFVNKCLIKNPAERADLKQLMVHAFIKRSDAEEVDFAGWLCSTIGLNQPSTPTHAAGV
Chain of Mitogen-activated protein kinase 1 (Homo sapiens) (P28482 whole entry): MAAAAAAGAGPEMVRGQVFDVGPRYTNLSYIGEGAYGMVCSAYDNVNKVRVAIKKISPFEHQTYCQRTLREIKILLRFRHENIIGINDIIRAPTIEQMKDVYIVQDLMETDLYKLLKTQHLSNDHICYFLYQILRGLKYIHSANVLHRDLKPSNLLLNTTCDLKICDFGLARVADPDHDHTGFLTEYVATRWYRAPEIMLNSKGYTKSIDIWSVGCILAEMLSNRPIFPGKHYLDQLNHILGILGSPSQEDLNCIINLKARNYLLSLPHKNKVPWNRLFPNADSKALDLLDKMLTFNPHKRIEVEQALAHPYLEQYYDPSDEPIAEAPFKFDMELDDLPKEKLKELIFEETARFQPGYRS

One may read the inhibition as how much of the control response was suppressed. For `Cc1ccc(NC(=O)c2ccc(C(F)(F)F)nc2)cc1NC(=O)c1cnc2ccccn12`, the inhibition turned out to be 79% in [1]; 41% in [2]; 39% in assay [3]; 60% in assay [4]; 0% in assay [5]; 0% in assay [6]. The inhibition in assay [7] is 0%; in assay [8], 75%; in assay [9], 93%; in assay [10], 30%; in the assay filed under Homo sapiens, 42%; in assay [11] it was 16%. Moreover, the inhibition was determined as 35% in [13]; 58% in assay [14]; 3% in assay [15]; 4% in assay [16]; 87% in [17]; 97% in [18]. The inhibition result in [12] was “Active”.
